In publication PMC8152350, “High cytotoxicity of betulin towards fish and murine fibroblasts: Is betulin safe for nonneoplastic cells?” (BMC Veterinary Research, 2021):
≈ marks a conversion by molar mass, not a printed value. Read-outs that look alike come from different tables or passages of the source.

How the values were obtained:
[1] = MTT assay (mitochondrial activity), fish fibroblasts; type: cell-based, bluegill; details: bluegill, BF-2 caudal trunk fibroblasts, mean ± SD, n = 3
Protocol: (§1) BF-2 (ATCC CCL-91) bluegill caudal trunk fibroblasts were grown in minimum essential medium (Eagle, EBSS) supplemented with 1 % nonessential amino acids (NEAAs), 10 % foetal bovine serum and 1 % antibiotic-antimycotic solution at 23 °C in a humidified atmosphere with 5 % CO2.
(§2) All experiments were repeated three times.

BF-2 cells [2] = assay: as above; type: cell-based, bluegill; details: fish cells
Protocol: as §1, §2

[3] = NRU assay (lysosomal membrane integrity), murine fibroblasts; type: cell-based, mouse; details: mouse, NIH/3T3 embryonic fibroblasts, n = 3
Protocol: as §2
(§3) The NRU assay evaluates lysosomal membrane integrity. It measures neutral red dye accumulation within lysosomes of viable cells.
(§4) The NRU assay was performed using a commercially available kit (TOX4) (Sigma-Aldrich, Poland) according to the manufacturer’s protocol. The full description of the test procedure was also provided in a published article.

NIH/3T3 cells [4] = assay: as above; type: cell-based, mouse; details: NIH/3T3, beginning at 48 h
Protocol: as §2, §3, §4

in vitro = type: cell-based, mouse; details: mouse
Protocol: as §2
(§5) The sulforhodamine B colorimetric assay measures the cellular protein content, and the assay results are proportional to the number of cells.
(§6) The SRB assay was performed using a commercially available kit (TOX6) (Sigma-Aldrich, Poland) according to the manufacturer’s protocol. In this assay, SRB binds to protein components of trichloroacetic acid-fixed cells, and the protein-bound dye is extracted with Tris. The results obtained are presented as the percentage of the total cellular protein content in control (nontreated) cells.

NIH/3T3 cells [5] = assay: in vitro; type: cell-based, mouse; details: NIH/3T3, 72 h
Protocol: as §2, §5, §6

BF-2 cells [6] = assay: LDH leakage assay (cellular membrane integrity), fish fibroblasts; type: cell-based, bluegill; details: BF-2, 24 h
Protocol: as §1, §2
The LDH assay measures leakage of the stable cytosolic enzyme lactate dehydrogenase into the culture medium, which is an indicator of irreversible cell membrane damage and cell death.
The LDH assay was performed using a commercially available kit (TOX7) (Sigma-Aldrich, Poland) according to the manufacturer’s protocol. The full description of the test procedure was also reported previously. The results obtained are reported as the percentage of LDH leakage to the culture media in control (nontreated) cells.

[7] = tested on: B16 cells (B164A5 and B16F10); set-up: method as in PMID 25756279; details: 150 µM betulin; cited from earlier work
[8] = tested on: B16 cells (B164A5 and B16F10); set-up: method as in PMID 25756279; details: B16 melanoma cells; cited from earlier work
[9] = tested on: murine fibroblasts (Balb 3T3 line); set-up: method as in PMID 23595090; details: Balb 3T3, incubation time not given; cited from earlier work
[10] = tested on: human lung fibroblasts (WI 38); set-up: method as in PMID 12697374; details: WI 38, trypan blue exclusion, 72 h, cited from earlier work
[11] = tested on: human skin fibroblasts (WS1); set-up: method as in PMID 16787747; details: WS1, resazurin reduction test, 48 h, cited from earlier work
HL60 = tested on: HL60; set-up: method as in PMID 12697374; details: HL60 leukaemia; read-out: IC50 of betulin; cited from earlier work
K562 = tested on: K562; set-up: method as in PMID 12697374; details: K562 leukaemia; read-out: IC50 of betulin; cited from earlier work
G361 = tested on: G361; set-up: method as in PMID 12697374; details: G361 melanoma; read-out: IC50 of betulin; cited from earlier work
GOTO = tested on: GOTO; set-up: method as in PMID 12697374; details: GOTO neuroblastoma; read-out: IC50 of betulin; cited from earlier work
A-549 = tested on: A-549; set-up: method as in PMID 16787747; details: read-out: IC50 of betulin; cited from earlier work
B16-F1 (mouse melanoma) = tested on: B16-F1 (mouse melanoma); set-up: method as in PMID 16787747; details: read-out: IC50 of betulin; cited from earlier work
Bcap-37 (breast cancer) = tested on: Bcap-37 (breast cancer); set-up: method as in PMID 22627971, PMID 23379693; details: Bcap-37, 20 µM; cited from earlier work
A375 (melanoma) = tested on: A375 (melanoma); set-up: method as in PMID 22627971, PMID 23379693; details: A375, 20 µM; cited from earlier work
[12] = tested on: SW707 (colorectal adenocarcinoma); set-up: method as in PMID 23595090; details: SW707, SRB assay; cited from earlier work
CCRF/CEM (leukaemia) = tested on: CCRF/CEM (leukaemia); set-up: method as in PMID 23595090; details: MTT assay; cited from earlier work
T47D (breast cancer) = tested on: T47D (breast cancer); set-up: method as in PMID 23595090; details: SRB assay; cited from earlier work
porcine chondrocytes = details: cited from earlier work
[13] = tested on: human skin fibroblasts (HSF); details: 24-h exposure, cited from earlier work

Question: For `C=C(C)[C@@H]1CC[C@]2(CO)CC[C@]3(C)[C@H](CC[C@@H]4[C@@]5(C)CC[C@H](O)C(C)(C)[C@@H]5CC[C@]43C)[C@@H]12` [betulin, Betulin], which CC50 at 24 h ([1]; BF-2, 24 h, read-out: CC50 betulin MTT 24 h) is on record?
Answer: 3.39 ± 0.903 µg/mL (≈ 7.67 µM)

Question: And the CC50 at 48 h ([1]; BF-2, 48 h, read-out: CC50 betulin MTT 48 h)?
Answer: 2.75 ± 1.05 µg/mL (≈ 6.21 µM)

Question: What about the CC50 at 72 h ([1]; BF-2, 72 h, read-out: CC50 betulin MTT 72 h) of the same compound?
Answer: 3.02 ± 1.03 µg/mL (≈ 6.82 µM)

Question: What about the “betulin concentration causing statistically significant decrease in viability (MTT)” value (BF-2 cells [2]; 24 h) of the same compound?
Answer: ≥ 1.95 µg/mL

Question: What about the “lower betulin concentration causing considerable decrease in viability (MTT)” value (BF-2 cells [2]; starting at 48 h of incubation) of the same compound?
Answer: 0.976 µg/mL

Question: What about the CC50 at 24 h ([3]; NIH/3T3, 24 h, read-out: CC50 betulin NRU 24 h) of the same compound?
Answer: > 15.6 µg/mL

Question: And the CC50 at 48 h ([3]; NIH/3T3, 48 h, mean ± SD, read-out: CC50 betulin NRU 48 h)?
Answer: 7.33 ± 2.94 µg/mL (≈ 16.6 µM)

Question: What about the CC50 at 72 h ([3]; NIH/3T3, 72 h, mean ± SD, read-out: CC50 betulin NRU 72 h) of the same compound?
Answer: 13 ± 2.94 µg/mL (≈ 29.3 µM)

Question: And the “betulin concentration causing considerable decrease in viability (NRU)” value (NIH/3T3 cells [4])?
Answer: ≥ 3.9 µg/mL

Question: What about the CC50 (in vitro; NIH/3T3, 24 h, mean ± SD, n = 3, read-out: CC50 betulin SRB 24 h) of the same compound?
Answer: 10.9 ± 7.34 µg/mL (≈ 24.6 µM)

Question: What about the CC50 (in vitro; NIH/3T3, 48 h, mean ± SD, n = 3, read-out: CC50 betulin SRB 48 h) of the same compound?
Answer: 4.05 ± 1.24 µg/mL (≈ 9.15 µM)

Question: And the CC50 (in vitro; NIH/3T3, 72 h, mean ± SD, n = 3, read-out: CC50 betulin SRB 72 h)?
Answer: 3.76 ± 0.572 µg/mL (≈ 8.48 µM)

Question: And the CC50 (in vitro; NIH/3T3, depending on incubation time (24-72 h), read-out: CC50 of betulin in SRB assay, range over incubation times)?
Answer: 3.76 to 10.9 µg/mL (≈ 8.48 to 24.6 µM)

Question: What about the “betulin concentration causing considerable decrease in total cellular protein content (SRB)” value (NIH/3T3 cells [5]) of the same compound?
Answer: ≥ 1.95 µg/mL

Question: And the “betulin concentration inducing substantial LDH leakage” value (BF-2 cells [6])?
Answer: 7.8 µg/mL

Question: What about the “trypan blue exclusion capacity” value [7] of the same compound?
Answer: 60%

Question: And the “betulin concentration from which almost complete lack of cell mitochondrial activity was observed (MTT)” value [8]?
Answer: ≥ 15 µM

Question: What about the “IC50 of betulin (SRB)” value [9] of the same compound?
Answer: 47.3 µg/mL

Question: What about the “IC50 of betulin, converted” value ([10]; conversion of µM value) of the same compound?
Answer: ca. 6.75 µg/ml

Question: What about the IC50 ([10]; read-out: IC50 of betulin) of the same compound?
Answer: 15.2 µM

Question: And the “IC50 of betulin, converted” value ([11]; conversion of µM value)?
Answer: ca. 1.6 µg/ml

Question: And the IC50 ([11]; read-out: IC50 of betulin)?
Answer: 3.58 µM

Question: And the IC50 (HL60)?
Answer: 14.7 µM

Question: And the IC50 (K562)?
Answer: 14.5 µM

Question: And the IC50 (G361)?
Answer: 12.4 µM

Question: What about the IC50 (GOTO) of the same compound?
Answer: 17.1 µM

Question: What about the IC50 (A-549) of the same compound?
Answer: 3.8 µM

Question: What about the IC50 (B16-F1 (mouse melanoma)) of the same compound?
Answer: 13.8 µM

Question: And the “inhibitory activity of betulin” value (Bcap-37 (breast cancer))?
Answer: 53.2%

Question: And the “inhibitory activity of betulin” value (A375 (melanoma))?
Answer: 33.9%

Question: And the IC50 of betulin [12]?
Answer: 22.9 µg/mL

Question: And the IC50 of betulin (CCRF/CEM (leukaemia))?
Answer: 10.9 µg/mL

Question: And the IC50 of betulin (T47D (breast cancer))?
Answer: 32.4 µg/mL

Question: And the “betulin concentration causing considerable decrease in viability (MTT)” value (porcine chondrocytes)?
Answer: 0.02 µg/mL

Question: And the “betulin concentrations causing considerable LDH leakage, converted” value ([13]; conversion of µM value)?
Answer: ≥ 4.4 µg/mL

Question: And the “betulin concentrations not toxic, converted” value ([13]; conversion of µM value)?
Answer: ≤ 2.2 µg/mL

Question: What about the “betulin concentrations causing considerable LDH leakage” value [13] of the same compound?
Answer: ≥ 10 µM

Question: What about the “betulin concentrations not toxic” value [13] of the same compound?
Answer: up to 5 µM
